Where “and” joins values, the source holds several entries; their conditions need not be identical. Identical values can stand only once. Like-named read-outs stand apart in the source and are kept apart here.
Tests used:
[1] = test system: ATF6 activity in Hela ATF6 reporter cells; experiment: Endoplasmic reticulum stress assay (ATF6 Renilla luciferase reporter, tunicamycin); format: cell-based; details: for ATF6 activity (tunicamycin-induced endoplasmic reticulum stress): Hela ATF6 reporter cells, tunicamycin 100 ng/mL, 18 h, compounds at recommended concentrations, n = 5; for activity at 1 µM: Homo sapiens, HeLa, single replicates n=1 to n=5, read-out: ER stress [rel. ATF6 activity]
Summary of the method: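 HeLa ATF6 Renilla reporter cells were pretreated 4 h with compounds in 0.1% DMSO, then stimulated with tunicamycin (100 ng/mL) for 18 h. Renilla luminescence (DualGlo) was normalized to 0.1% DMSO control; five independent experiments.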

CSNK1D = target: T1, CSNK1D (Homo sapiens, UniProt P48730); experiment: Liability panel screening by DSF: CSNK1D; format: binding; details: read-out: Mean ΔTM CSNK1D
T1 construct: made in house
T1 sequence (P48730 whole entry, species assumed): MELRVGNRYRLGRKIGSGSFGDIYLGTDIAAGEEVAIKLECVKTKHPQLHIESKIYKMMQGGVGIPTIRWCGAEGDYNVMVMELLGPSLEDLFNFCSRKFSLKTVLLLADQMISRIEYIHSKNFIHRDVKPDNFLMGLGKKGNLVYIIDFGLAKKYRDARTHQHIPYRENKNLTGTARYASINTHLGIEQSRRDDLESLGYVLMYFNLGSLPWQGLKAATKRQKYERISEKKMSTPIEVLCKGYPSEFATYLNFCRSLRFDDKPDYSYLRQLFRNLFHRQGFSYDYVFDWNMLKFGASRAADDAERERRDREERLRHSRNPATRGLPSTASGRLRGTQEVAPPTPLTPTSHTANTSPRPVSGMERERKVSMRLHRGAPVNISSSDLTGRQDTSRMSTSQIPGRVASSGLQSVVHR
Summary of the method: (§1)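 Thermal shift: in-house recombinant protein at 2 µM in 10 mM HEPES pH 7.5 with 500 mM NaCl, SYPRO Orange 1:1000, heated at 3 °C/min to 85 °C in technical duplicates. Tm is the Boltzmann inflection point, reported as ∆Tm in K.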

Gal4-VP16 = format: cell-based; details: 1 µM; vs. DMSO ctrl; single replicates n=1-3
TRIM24 = target: T2, TRIM24 (Homo sapiens, UniProt O15164); experiment: Liability panel screening by DSF: TRIM24; format: binding; details: read-out: Mean ΔTM TRIM24
T2 construct: This panel comprised ten highly ligandable kinases and bromodomains; made in house
T2 sequence (O15164 899-1004 limits assumed): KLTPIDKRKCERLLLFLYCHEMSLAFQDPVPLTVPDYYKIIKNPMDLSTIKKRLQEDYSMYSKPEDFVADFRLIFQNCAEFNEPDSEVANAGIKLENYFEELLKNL
Summary of the method: as §1

NR3A1 (ERα) = details: cited from earlier work
HEK293T cells [2] = experiment: Cytotoxicity: apoptosis induction (caspase-3/7 DEVD fluorogenic DNA dye); details: 1 µM; HEK293T, 24 h; apoptotic cell count normalized to 0.1% DMSO; single replicates
[3] = test system: NF-κB activity in HEK293 NF-κB reporter cells; experiment: NF-kB activity assay (GFP reporter, ionomycin/PMA); format: cell-based; details: for Mean NFκB response: n=3; for NF-κB activity (inflammatory response to ionomycin/PMA): HEK293 NF-κB reporter cells, compounds at recommended concentrations, imaged over 24 h, n = 3
Summary of the method: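 HEK293 NF-κB GFP reporter cells given compound in 0.1% DMSO for 4 h, then stimulated with ionomycin 100 ng/mL plus PMA 10 ng/mL. Imaged every 90 min over 24 h; GFP-positive cell count normalized to confluence, three independent biological replicates.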

HEK293T cells [4] = experiment: Cytotoxicity: necrosis induction (red fluorescent dye for permeable plasma membranes); format: cell-based; details: 1 µM, 24 h, necrotic cell count normalized to 0.1% DMSO, single replicates;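 note: compounds applied in DMEM high glucose with 0.1% FCS and 0.1% DMSO, necrotic HEK293T cells counted by red staining of cells whose plasma membranes had become permeable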
ABL1 = target: T3, ABL1 (Homo sapiens, UniProt P00519); experiment: Liability panel screening by DSF: ABL1; format: binding; details: read-out: Mean ΔTM ABL1
T3 construct: made in house
T3 sequence (P00519 whole entry, species assumed): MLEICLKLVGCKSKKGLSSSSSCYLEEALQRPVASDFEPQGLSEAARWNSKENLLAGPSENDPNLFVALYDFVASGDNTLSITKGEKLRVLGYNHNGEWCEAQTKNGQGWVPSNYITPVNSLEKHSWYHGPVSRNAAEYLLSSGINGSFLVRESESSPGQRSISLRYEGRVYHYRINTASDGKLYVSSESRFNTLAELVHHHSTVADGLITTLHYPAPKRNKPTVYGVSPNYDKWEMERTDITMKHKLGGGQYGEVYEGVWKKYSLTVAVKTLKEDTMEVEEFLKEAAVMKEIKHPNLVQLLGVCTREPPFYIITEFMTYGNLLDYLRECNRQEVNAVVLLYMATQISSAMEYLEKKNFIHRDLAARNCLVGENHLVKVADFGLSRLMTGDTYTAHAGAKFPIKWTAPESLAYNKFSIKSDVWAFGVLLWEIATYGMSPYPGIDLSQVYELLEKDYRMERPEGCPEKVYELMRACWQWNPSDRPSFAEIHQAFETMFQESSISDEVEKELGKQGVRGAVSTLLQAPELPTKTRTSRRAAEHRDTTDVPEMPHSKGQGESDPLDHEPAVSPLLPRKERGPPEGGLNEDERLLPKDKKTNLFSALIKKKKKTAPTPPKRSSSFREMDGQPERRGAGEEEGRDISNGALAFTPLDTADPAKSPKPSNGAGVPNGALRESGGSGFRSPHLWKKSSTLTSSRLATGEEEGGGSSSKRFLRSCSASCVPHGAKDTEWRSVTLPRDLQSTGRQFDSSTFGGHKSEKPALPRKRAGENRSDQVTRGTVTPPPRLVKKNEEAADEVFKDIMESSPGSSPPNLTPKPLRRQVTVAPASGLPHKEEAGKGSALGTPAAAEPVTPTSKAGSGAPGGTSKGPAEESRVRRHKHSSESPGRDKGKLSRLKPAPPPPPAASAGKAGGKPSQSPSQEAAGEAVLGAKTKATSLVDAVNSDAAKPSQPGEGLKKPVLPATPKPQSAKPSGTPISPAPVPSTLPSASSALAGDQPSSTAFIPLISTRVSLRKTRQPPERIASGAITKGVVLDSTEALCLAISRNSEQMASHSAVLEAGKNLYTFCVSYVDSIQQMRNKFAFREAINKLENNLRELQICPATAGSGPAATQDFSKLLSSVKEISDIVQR
Summary of the method: as §1

BRPF1 = target: T4, BRPF1 (Homo sapiens, UniProt P55201); experiment: Liability panel screening by DSF: BRPF1; format: binding; details: read-out: Mean ΔTM BRPF1
T4 construct: This panel comprised ten highly ligandable kinases and bromodomains; made in house
T4 sequence (P55201 628-732 limits assumed): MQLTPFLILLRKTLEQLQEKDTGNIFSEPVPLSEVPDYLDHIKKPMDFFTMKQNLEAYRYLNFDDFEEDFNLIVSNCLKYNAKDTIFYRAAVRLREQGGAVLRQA
Summary of the method: as §1

FGFR3 = target: T5, FGFR3 (Homo sapiens, UniProt P22607); experiment: Liability panel screening by DSF: FGFR3; format: binding; details: read-out: Mean ΔTM FGFR3
T5 construct: made in house
T5 sequence (P22607 23-806, species assumed): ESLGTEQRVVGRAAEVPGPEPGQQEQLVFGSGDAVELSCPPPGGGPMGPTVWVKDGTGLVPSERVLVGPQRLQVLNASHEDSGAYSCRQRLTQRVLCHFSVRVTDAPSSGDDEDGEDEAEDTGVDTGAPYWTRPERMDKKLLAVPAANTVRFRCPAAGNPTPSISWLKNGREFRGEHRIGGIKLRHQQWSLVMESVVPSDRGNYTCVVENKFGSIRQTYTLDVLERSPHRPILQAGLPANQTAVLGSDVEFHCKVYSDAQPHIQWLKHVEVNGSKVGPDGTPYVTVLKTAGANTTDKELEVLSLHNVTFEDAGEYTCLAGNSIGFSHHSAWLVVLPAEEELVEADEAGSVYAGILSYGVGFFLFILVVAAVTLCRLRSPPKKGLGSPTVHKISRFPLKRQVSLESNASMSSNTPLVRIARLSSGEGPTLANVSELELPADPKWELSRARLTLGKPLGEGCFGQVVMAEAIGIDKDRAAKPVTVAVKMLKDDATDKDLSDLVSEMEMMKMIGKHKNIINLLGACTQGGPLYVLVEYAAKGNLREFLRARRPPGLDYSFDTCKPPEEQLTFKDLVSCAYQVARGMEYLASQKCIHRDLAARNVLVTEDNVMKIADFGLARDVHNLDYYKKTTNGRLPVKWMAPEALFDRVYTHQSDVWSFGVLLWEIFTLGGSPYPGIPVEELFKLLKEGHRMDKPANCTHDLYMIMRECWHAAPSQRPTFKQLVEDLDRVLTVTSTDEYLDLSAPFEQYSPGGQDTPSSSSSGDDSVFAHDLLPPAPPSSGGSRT
Summary of the method: as §1

CDK2 = target: T6, CDK2 (Homo sapiens, UniProt P24941); experiment: Liability panel screening by DSF: CDK2; format: binding; details: read-out: Mean ΔTM CDK2
T6 construct: made in house
Summary of the method: as §1

GSK3B = target: T7, GSK3B (Homo sapiens, UniProt P49841); experiment: Liability panel screening by DSF: GSK3B; format: binding; details: read-out: Mean ΔTM GSK3B
T7 construct: made in house
T7 sequence (P49841 whole entry, species assumed): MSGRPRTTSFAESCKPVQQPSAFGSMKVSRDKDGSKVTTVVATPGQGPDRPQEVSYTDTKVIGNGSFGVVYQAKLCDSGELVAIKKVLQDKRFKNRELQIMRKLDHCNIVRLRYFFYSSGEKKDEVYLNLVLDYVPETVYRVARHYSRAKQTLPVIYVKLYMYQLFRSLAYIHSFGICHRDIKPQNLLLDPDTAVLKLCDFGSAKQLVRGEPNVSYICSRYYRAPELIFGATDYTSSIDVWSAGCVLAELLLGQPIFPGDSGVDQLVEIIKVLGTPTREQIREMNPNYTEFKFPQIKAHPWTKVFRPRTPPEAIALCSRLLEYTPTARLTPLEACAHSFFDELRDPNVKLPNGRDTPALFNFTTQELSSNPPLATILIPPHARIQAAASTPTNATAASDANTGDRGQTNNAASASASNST

HEK293T cells [5] = experiment: Cytotoxicity: growth-rate (change in confluence over 24 h); details: 1 µM, normalized to 0.1% DMSO control, single replicates (n=1...)
BRD4 = target: T8, BRD4 (Homo sapiens, UniProt O60885); experiment: Liability panel screening by DSF: BRD4; format: binding; details: read-out: Mean ΔTM BRD4
T8 construct: This panel comprised ten highly ligandable kinases and bromodomains; made in house
Summary of the method: as §1

MAPK1 = target: T9, MAPK1 (Homo sapiens, UniProt P28482); experiment: Liability panel screening by DSF: MAPK1; format: binding; details: DSF, 20 µM, n=2; read-out: Mean ΔTM MAPK1
T9 construct: made in house
T9 sequence (P28482 whole entry, species assumed): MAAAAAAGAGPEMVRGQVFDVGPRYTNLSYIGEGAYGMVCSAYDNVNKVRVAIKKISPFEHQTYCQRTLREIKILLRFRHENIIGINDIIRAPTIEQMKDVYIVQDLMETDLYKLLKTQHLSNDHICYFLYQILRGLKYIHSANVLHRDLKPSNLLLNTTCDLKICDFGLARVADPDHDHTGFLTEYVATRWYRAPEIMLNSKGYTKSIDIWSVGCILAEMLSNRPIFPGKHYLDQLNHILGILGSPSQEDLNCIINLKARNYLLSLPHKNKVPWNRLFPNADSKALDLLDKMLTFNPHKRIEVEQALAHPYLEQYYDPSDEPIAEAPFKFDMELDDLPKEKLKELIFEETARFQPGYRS
Summary of the method: as §1

AURKA = target: T10, AURKA (Homo sapiens, UniProt O14965); experiment: Liability panel screening by DSF: AURKA; format: binding; details: read-out: Mean ΔTM AURKA
T10 construct: made in house
T10 sequence (O14965 1-403): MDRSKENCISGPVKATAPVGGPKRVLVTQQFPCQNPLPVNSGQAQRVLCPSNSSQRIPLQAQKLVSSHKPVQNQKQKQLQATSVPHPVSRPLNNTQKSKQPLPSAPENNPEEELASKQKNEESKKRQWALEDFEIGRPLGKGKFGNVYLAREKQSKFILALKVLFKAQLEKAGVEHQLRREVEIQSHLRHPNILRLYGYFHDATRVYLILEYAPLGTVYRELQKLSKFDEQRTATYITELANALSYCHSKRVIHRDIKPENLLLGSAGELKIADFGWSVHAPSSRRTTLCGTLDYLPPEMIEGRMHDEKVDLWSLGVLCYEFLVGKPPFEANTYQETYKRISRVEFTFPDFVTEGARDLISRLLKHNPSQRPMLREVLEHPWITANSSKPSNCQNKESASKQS
Summary of the method: as §1

HEK293T cells [6] = experiment: Cytotoxicity: metabolic activity (WST-8 / CCK-8 assay); details: 1 µM; HEK293T, 24 h; WST-8; normalized to 0.1% DMSO; single replicates
Method: Cells were incubated with the test compounds at the indicated concentrations solubilized with 0.1% DMSO for 24 h. Growth-rate was determined based on the change in confluence over 24 h normalized to the change in confluence of cells treated with the 0.1% DMSO control (n = 10). Metabolic activity was determined with a water-soluble tetrazolium-8 (WST-8) assay (n = 8) after 24 h treatment. Apoptotic cells were detected with a fluorogenic DNA dye coupled to the caspase-3/7 recognition sequence (DEVD) after 24 h treatment and the apoptotic cell count was normalized to 0.1% DMSO treated cells (n = 6).
HEK293T cells (German Collection of Microorganisms and Cell Culture GmbH, DSMZ; #ACC305) were cultured in DMEM high glucose, supplemented with 10% fetal calf serum (FCS), sodium pyruvate (1 mM), penicillin (100 µ/mL) and streptomycin (100 µg/mL) at 37 °C and 5% (v/v) CO2, and seeded in pre-coated (10 µg/mL collagen G solution (Merck KgaA; #L7213) for 30 min at 37 °C) 96-well plates (2 × 10^5 cells per well). After 24 h, the cells were treated with the respective NR3 CG compound candidate at the recommended concentration, bexarotene (100 µM) or doxorubicin (30 µM) as positive controls in DMEM high glucose supplemented with 0.1% FCS, penicillin (100 µ/mL), streptomycin (100 µg/mL) and 0.1% DMSO, or 0.1% DMSO alone as an untreated control. Each sample was prepared in at least four biologically independent replicates. […] Thereafter, the medium was aspirated and the cells were incubated for 3 h with 90 µL DMEM high glucose supplemented with 0.2% FCS, penicillin (100 µ/mL) and streptomycin (100 µg/mL) and additionally containing 10 µL Cell Counting Kit 8 solution (CCK-8; MedChemExpress, Monmouth Junction, New York, USA; #HY-K0301), and absorbance was measured at 1 h, 2 h and 3 h of incubation at 450 nm on a Tecan Spark Cyto to assess metabolic activity of the cells. Before drug administration, after the first medium exchange, 24 h after drug administration, and after fluorescence imaging cell confluence was assessed using the Tecan Spark Cyto, to account for changes in cell confluence due to drug administration and cell handling. Compound effects on cell confluence, apoptosis, metabolic activity and necrosis were normalized to the vehicle control of each biological replicate individually.

SMILES: COc1ccc2c(c1)OC(C)(C)C(c1ccccc1)C2c1ccc(OCCN2CCCC2)cc1 (stereo not drawn) [Ormeloxifene]
- ATF6 activity (tunicamycin-induced endoplasmic reticulum stress) [1]: mediated resolution of the tunicamycin-induced endoplasmic reticulum stress
- activity at 1 µM [1]: 39%
- ΔTm at 20 µM (CSNK1D; DSF, 20 µM, n=2): -0.1 °C
- VP16 control [fold reporter gene activity] (Gal4-VP16): 1.02 fold reporter gene activity and 1.04 fold reporter gene activity and 1.38 fold reporter gene activity
- ΔTm at 20 µM (TRIM24; DSF, 20 µM, n=2): -3.44 °C
- EC50 (NR3A1 (ERα); (lit.), ref Supplementary Table 1, read-out: Potency [nM] EC50, NR3A1 (ERα)): 13 ± 0.4 nM
- rel. activity from literature, NR3A1 (ERα): % of moxestrol (NR3A1 (ERα); of moxestrol): 25 ± 2%
- Apoptosis induction [AI] (HEK293T cells [2]): 0.93 and 1.23 and 0.90 and 1.47 and 0.53 and 0.80
- Mean NFκB response ([3]; 1 µM, 1,5 h): 3755.51 GFP+-cells/confluence ∙ 1000
- Mean NFκB response ([3]; 1 µM, 4,5 h): 4450.99 GFP+-cells/confluence ∙ 1000
- Mean NFκB response ([3]; 1 µM, 7,5 h): 10042.81 GFP+-cells/confluence ∙ 1000
- Mean NFκB response ([3]; 1 µM, 10,5 h): 20884.44 GFP+-cells/confluence ∙ 1000
- Mean NFκB response ([3]; 1 µM, 13,5 h): 30159.52 GFP+-cells/confluence ∙ 1000
- Mean NFκB response ([3]; 1 µM, 16,6 h): 36246.87 GFP+-cells/confluence ∙ 1000
- Mean NFκB response ([3]; 1 µM, 19,5 h): 41125.44 GFP+-cells/confluence ∙ 1000
- Mean NFκB response ([3]; 1 µM, 22,5 h): 44312.79 GFP+-cells/confluence ∙ 1000
- Mean NFκB response ([3]; 1 µM, 3 h): 3914.66 GFP+-cells/confluence ∙ 1000
- Mean NFκB response ([3]; 1 µM, 6 h): 5719.43 GFP+-cells/confluence ∙ 1000
- Mean NFκB response ([3]; 1 µM, 9 h): 15929.12 GFP+-cells/confluence ∙ 1000
- Mean NFκB response ([3]; 1 µM, 12 h): 25867.46 GFP+-cells/confluence ∙ 1000
- Mean NFκB response ([3]; 1 µM, 15 h): 33826.67 GFP+-cells/confluence ∙ 1000
- Mean NFκB response ([3]; 1 µM, 18 h): 39021.43 GFP+-cells/confluence ∙ 1000
- Mean NFκB response ([3]; 1 µM, 21 h): 42782.99 GFP+-cells/confluence ∙ 1000
- Mean NFκB response ([3]; 1 µM, 24 h): 45591.11 GFP+-cells/confluence ∙ 1000
- NF-κB activity (inflammatory response to ionomycin/PMA) [3]: no impact on NF-κB activity
- Necrosis induction [NI] (HEK293T cells [4]): 1.44 and 1.00 and 0.84 and 1.46
- ΔTm at 20 µM (ABL1; DSF, 20 µM, n=2): -0.02 °C
- ΔTm at 20 µM (BRPF1; DSF, 20 µM, n=2): -2.59 °C
- ΔTm at 20 µM (FGFR3; DSF, 20 µM, n=2): 0.15 °C
- ΔTm at 20 µM (CDK2; DSF, 20 µM, n=2): -2.04 °C
- ΔTm at 20 µM (GSK3B; DSF, 20 µM, n=2): 0 °C
- Growth rate [GR] (HEK293T cells [5]): 0.58 and 1.95 and 0.92 and 1.05 and 0.91 and 0.78 and 1.00 and 2.25 and 0.88 and 10.36
- ΔTm at 20 µM (BRD4; DSF, 20 µM, n=2): -3.83 °C
- ΔTm at 20 µM (MAPK1): -2.68 °C
- ΔTm at 20 µM (AURKA; DSF, 20 µM, n=2): 0.51 °C
- Metabolic activity [MA] (HEK293T cells [6]): 1.06 and 1.01 and 0.96 and 1.00 and 1.02 and 0.99 and 1.05 (2×)

SMILES: CCCc1c(-c2ccc(O)cc2)nn(-c2ccc(O)cc2)c1-c1ccc(O)cc1 [Propylpyrazoletriol]
- ATF6 activity (tunicamycin-induced endoplasmic reticulum stress) [1]: failed to reduce ATF6 activity
- activity at 1 µM [1]: 96%
- ΔTm at 20 µM (CSNK1D): 1.72 °C
- ΔTm at 20 µM (TRIM24): -3.23 °C
- rel. activity from literature, NR3A1 (ERα): % of estradiol (NR3A1 (ERα); of estradiol): 120%
- Apoptosis induction [AI] (HEK293T cells [2]): 1.04 and 1.18 and 0.79 and 1.33 and 1.63 and 1.23
- Mean NFκB response ([3]; 1 µM, 1,5 h): 3210.54 GFP+-cells/confluence ∙ 1000
- Mean NFκB response ([3]; 1 µM, 4,5 h): 4272.75 GFP+-cells/confluence ∙ 1000
- Mean NFκB response ([3]; 1 µM, 7,5 h): 9949.66 GFP+-cells/confluence ∙ 1000
- Mean NFκB response ([3]; 1 µM, 10,5 h): 19765.59 GFP+-cells/confluence ∙ 1000
- Mean NFκB response ([3]; 1 µM, 13,5 h): 27110.00 GFP+-cells/confluence ∙ 1000
- Mean NFκB response ([3]; 1 µM, 16,6 h): 32836.67 GFP+-cells/confluence ∙ 1000
- Mean NFκB response ([3]; 1 µM, 19,5 h): 36663.33 GFP+-cells/confluence ∙ 1000
- Mean NFκB response ([3]; 1 µM, 22,5 h): 39666.67 GFP+-cells/confluence ∙ 1000
- Mean NFκB response ([3]; 1 µM, 3 h): 3501.92 GFP+-cells/confluence ∙ 1000
- Mean NFκB response ([3]; 1 µM, 6 h): 6059.91 GFP+-cells/confluence ∙ 1000
- Mean NFκB response ([3]; 1 µM, 9 h): 15582.73 GFP+-cells/confluence ∙ 1000
- Mean NFκB response ([3]; 1 µM, 12 h): 23751.78 GFP+-cells/confluence ∙ 1000
- Mean NFκB response ([3]; 1 µM, 15 h): 30496.67 GFP+-cells/confluence ∙ 1000
- Mean NFκB response ([3]; 1 µM, 18 h): 34710.00 GFP+-cells/confluence ∙ 1000
- Mean NFκB response ([3]; 1 µM, 21 h): 37963.33 GFP+-cells/confluence ∙ 1000
- Mean NFκB response ([3]; 1 µM, 24 h): 40840.00 GFP+-cells/confluence ∙ 1000
- NF-κB activity (inflammatory response to ionomycin/PMA) [3]: no impact on NF-κB activity
- Necrosis induction [NI] (HEK293T cells [4]): 1.15 and 0.83 and 0.85 and 0.82
- ΔTm at 20 µM (ABL1): -0.07 °C
- ΔTm at 20 µM (BRPF1): -2.86 °C
- ΔTm at 20 µM (FGFR3): -0.78 °C
- ΔTm at 20 µM (CDK2): -2.26 °C
- ΔTm at 20 µM (GSK3B): 0.06 °C
- Growth rate [GR] (HEK293T cells [5]): 0.81 and 2.52 and 0.99 and 1.39 and 1.25 and 1.17 and 0.88 and 3.47 and 1.21 and 7.02
- ΔTm at 20 µM (BRD4): -2.55 °C
- ΔTm at 20 µM (AURKA): 0.0212 °C
- Metabolic activity [MA] (HEK293T cells [6]): 0.98 (2×) and 1.03 and 0.91 and 0.97 and 0.94 and 1.18 and 1.14
